Experimental data reported in patent US12599602B2, “Methods for treating cholestasis” (Mirum Pharmaceuticals, Inc., priority 2019, dated 2026).
Several values for one entry are separate records, joined by “and”; a condition that tells them apart may be missing. Equal entries are not always repeated.

Assays:
[1] = tested on: Children with Progressive Familial Intrahepatic Cholestasis; assay: INDIGO phase 2 open-label efficacy and safety clinical study of maralixibat in PFIC; format: in vivo, human; conditions: for 7αC4:sBA ratio: high-dose responder
[2] = tested on: Overweight and obese adults; assay: Phase 1 blinded, placebo-controlled, dose-ranging clinical study (NCT02475317), fecal bile acid excretion
Experimental: Participants consumed a low-fiber diet (<10 mg/day) for 2 days before randomization and during the 7-day treatment period. Measurements were taken of fBA, sBA concentration, and serum 7αC4 concentration (which is a biomarker of bile acid synthesis) prior to drug administration and at day 7.

[3] = tested on: Participants with Primary Sclerosing Cholangitis (PSC); assay: CAMEO 14-week single-arm open-label phase 2a study of maralixibat in PSC; format: in vivo, human
Experimental: Participants were adults aged 18-80 years with a diagnosis of PSC. PSC diagnosis included a documented history of alkaline phosphatase (ALP) levels greater than 1.5 times above the upper limit of normal, biliary obstruction, and histological findings consistent with PSC diagnosis (if previously biopsied). The study enrolled 27 adults.
Efficacy was assessed by measuring at baseline and throughout the study sBA concentration, serum 7αC4 concentration (a marker of de novo bile acid synthesis), serum aoutotaxin concentration, LDL-C concentration, serum total cholesterol concentration, serum liver enzyme concentrations, and pruritus severity. Pruritus severity was determined by calculating Adult Itch Reported Outcome (ITCHRO) weekly sum scores and average daily scores (mean score over a 7-day period). Participants self-reported the ITCHRO daily on a scale 0-10 (0=no pruritus; 10=most severe pruritus).
Outcomes were assessed in the overall study population and in subgroups of participants (A) with any pruritus at baseline or (B) with an ITCHRO average daily score ≥4 out of 10 at baseline. Efficacy endpoints were based on change from baseline to week 14 or early termination (ET) and were analyzed using paired t-tests or Wilcoxon signed rank tests.

[4] = participants with ITCHRO daily score ≥4 at baseline, one line per Participant A-F
[5] = participants with an ITCHRO daily score ≥4 at baseline

For maralixibat, the “serum ALT, AST, and bilirubin concentrations over time” value ([1]; all low-dose responders, e.g. within 2-6 months of first administration) was “normalized or only mildly elevated concentrations”, the “increase in C4 levels relative to baseline” value ([1]; all low-dose responders, within 13 weeks of first administration) was “at least 2.5 fold” and the “height Z-score” value ([1]; high dose responder, following treatment response on sBA) was “increase in height Z-score”. The “7αC4:sBA ratio” value ([1]; prior to administration of 560 μg/kg/day) was 12 times baseline, the “7αC4:sBA ratio” value ([1]; upon administration of the higher dose (560 μg/kg/day)) was 1770 times baseline and the “cholestasis markers after administration of the higher dose” value ([1]; low-dose responder losing response in long-term extension, 280 μg/kg BID from between 640 and 730 days) was “sBA concentration decreased, severity of pruritus decreased, serum 7αC4 concentration increased, and 7αC4:sBA ratio increased”. For the same substance, the “pruritus after administration of the higher dose” value ([1]; low-dose responder with sBA increase in long-term extension, 280 μg/kg BID from between 820 and 910 days) was “severity of pruritus subsequently decreased”, the “7αC4 concentrations at 48 weeks” value ([1]; low-dose responders) was 14 × baseline and the “growth (height Z-score change relative to baseline)” value ([1]; low-dose responders) was “improved growth relative to baseline”. The “mean change from baseline at week 48 in 7αC4:sBA ratio” value ([1]; low-dose responders) was 1388 times baseline ratio, the multi-parameter responder ([1]; mild PFIC 2 patients, 280 μg/kg QD) was 1 of 7 and the responders ([1]; moderate PFIC 2 patients, 280 μg/kg/day by week 48) was 5 of 12. The high-dose responder ([1]; moderate PFIC 2 patients, responsive only after 280 μg/kg twice daily) was 1 of 12, the “7αC4 concentrations at 48 weeks” value ([1]; non-responders) was 1.8 × baseline and the “growth (height Z-score change relative to baseline)” value ([1]; non-responders) was “did not”. The “mean change from baseline at week 48 in 7αC4:sBA ratio” value ([1]; non-responders) was 1.9 times baseline ratio, the “patients with ≥1.0 pt. reduction in ITCHRO(OBS) score” value ([1]; non-truncating BSEP mutations) was 10/19 and the “duration of maintained response” value ([1]; responders) was “for over a year and for up to or beyond 5 years”. The “ItchRO score, n: Improved by ≥1.0 points from baseline” value ([1]; responders (n = 6) by week 48) was 4, the “ItchRO score, n: Zero (no pruritus)” value ([1]; responders (n = 6) by week 48) was 2 and the “sBA levels, n: Normalized (±≤8.5 μmol/L)” value ([1]; responders (n = 6) by week 48) was 4. The “sBA levels, n: Reduced by ≥70% or ≥80% from baseline” value ([1]; responders (n = 6) by week 48) was 2, the “patients responding at the higher dose” value ([1]; three non-truncating PFIC 2 patients without response at 280 μg/kg/day given 560 μg/kg/day) was “one” and the “ALT, change from baseline to week 48, mean” value ([1]; week 48) was −12 UI/L. For the same substance, the “C4, change from baseline to week 48, mean” value ([1]; week 48) was “+6.0 ng/mL”, the “ItchRO(Obs) score, change from baseline to week 48, mean” value ([1]; week 48) was −1.0 and the “PedsQL total score, change from baseline to week 48, mean” value ([1]; week 48) was “+8.2”. The “Total bilirubin, change from baseline to week 48, mean” value ([1]; week 48) was “+0.8 mg/dL”, the “sBA, change from baseline to week 48, mean” value ([1]; week 48) was -32 µmol/L and the “fBA excretion, mean change from baseline” value ([2]; 10 mg dose, 7 days) was 515 µmol. For the same substance, the “fBA excretion, mean change from baseline” value ([2]; 20 mg dose, 7 days) was 532 µmol, the “fBA excretion, mean change from baseline” value ([2]; 50 mg BID, 7 days) was 1251 µmol and the “fBA excretion, mean change from baseline” value ([2]; 100 mg QD, 7 days) was 1144 µmol. For the same substance, the “Mean sBA levels” value ([2]; 7 days) was “not elevated”, the fBA excretion ([2]; across doses) was “increased in a dose-dependent manner” and the “treatment-emergent adverse events occurring in over 10% of participants” value ([2]; all doses) was “headache and diarrhea”. For the same substance, the “treatment-emergent adverse events, severity” value ([2]; all doses) was “mild, and none were serious”, the “Mean serum 7αC4” value ([2]; baseline to day 7) was “increased” and the tolerability ([3]; adults with PSC, up to 10 mg/day) was “well tolerated”. The “participants with worsening of pruritus by >1 point” value ([3]; baseline to week 14) was “No participants”, the “7αC4, mean increase from baseline” value ([3]; overall) was 11.1 ng/mL and the “Mean levels of 7αC4, increase from baseline” value ([3]; overall) was 130%. For the same substance, the “sBA levels, decrease from baseline” value ([3]; overall) was 38%, the “sBA levels, mean change from baseline” value ([3]; overall) was -14.8 µmol/L and the “Mean conjugated bilirubin levels, increase” value ([3]; overall population) was 0.19 mg/dL. For the same substance, the “serum LCL-C concentration, change” value ([3]; overall population) was -16.3 mg/dL, the “serum autotaxin concentration, change” value ([3]; overall population) was -148 ng/mL and the “total cholesterol, mean change” value ([3]; overall population) was -21.2 mg/dL. The “ITCHRO weekly sum scores, decrease from baseline” value ([3]; overall, baseline to week 14/ET) was 51%, the “Changes in serum total bilirubin, alanine aminotransferase, aspartate aminotransferase, and alkaline phosphatase concentrations” value ([3]; participants in the CAMEO clinical study) was “not statistically significant” and the “conjugated bilirubin levels, change” value ([3]; participants with ITCHRO daily score ≥0 at baseline) was “no significant change”. The “ItchRO average daily score (0-10 scale), Change from baseline to week 14/ET” value [3, 4] was −4.7 and −4.6 and −1.7 and −3.7 (2×) and −9.1, the “ItchRO average daily score (0-10 scale), Week 14/ET” value [3, 4] was 0 (2×) and 1.3 and 5.1 and 3.1 and 2.3 and the autotaxin levels ([3]; participants with an ITCHRO daily score >4 at baseline) was “significant reductions”. For the same substance, the “ITCHRO weekly sum scores, decrease from baseline” value ([3]; participants with an ITCHRO daily score >4 out of 10 at baseline (n=6)) was 70%, the “Mean levels of 7αC4, increase from baseline” value [3, 5] was 107% and the “sBA levels, decrease from baseline” value [3, 5] was 45%. For the same substance, the “total cholesterol, mean change” value [3, 5] was -32.0 mg/dL, the “participants in whom pruritus improved” value ([3]; participants with an ITCHRO score ≥4 at baseline) was “all 6” and the “ITCHRO weekly sum scores, decrease from baseline” value ([3]; participants with any pruritus at baseline (n=18)) was 53%.
